In one assay the target is ruLAP2 (Trichophyton rubrum, UniProt Q5QHG6). The assay is classed as biochemical. Particulars: for effect of inhibitor on ruLAP2 activity: Leu-AMC 5 mM; for ruLAP2 activity as percentage of control reaction without inhibitor / ruLAP2 activity as percentage of control reaction without any cation: Leu-MCA substrate, 15 min pre-incubation.
The target in a further assay is ruLAP1 (Trichophyton rubrum, UniProt Q5QHG5). The class given is biochemical. The settings on record: for effect of inhibitor on ruLAP1 activity: Leu-AMC 5 mM; for ruLAP1 activity as percentage of control reaction without inhibitor: Leu-MCA substrate, 15 min pre-incubation.
Sequence of ruLAP1 (Q5QHG5 21-373): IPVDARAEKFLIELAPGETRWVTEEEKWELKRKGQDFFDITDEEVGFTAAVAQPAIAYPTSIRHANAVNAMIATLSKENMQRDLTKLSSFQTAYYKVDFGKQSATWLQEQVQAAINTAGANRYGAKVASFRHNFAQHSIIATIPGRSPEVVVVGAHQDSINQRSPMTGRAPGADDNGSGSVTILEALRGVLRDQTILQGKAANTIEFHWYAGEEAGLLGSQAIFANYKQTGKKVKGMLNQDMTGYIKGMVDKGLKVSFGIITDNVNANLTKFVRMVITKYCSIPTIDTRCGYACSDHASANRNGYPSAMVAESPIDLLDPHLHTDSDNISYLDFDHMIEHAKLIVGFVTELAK
A further assay relates to fuLAP2. The class given is biochemical, Aspergillus fumigatus. The settings on record: for effect of inhibitor on fuLAP2 activity: Leu-AMC 5 mM; for fuLAP2 activity as percentage of control reaction without inhibitor / fuLAP2 activity as percentage of control reaction without any cation: Leu-MCA substrate, 15 min pre-incubation.
Another assay deals with fuLAP1 (Aspergillus fumigatus, UniProt Q5VJG6). Put plainly: biochemical. The assay is classed as biochemical. The settings on record: for effect of inhibitor on fuLAP1 activity: Leu-AMC 5 mM; for remaining activity at 500 µM: inhibitor 500 μM, read-out: fuLAP1 activity as percentage of control reaction without inhibitor; for remaining activity at 500 µM / fuLAP1 activity as percentage of control reaction without inhibitor / fuLAP1 activity as percentage of control reaction without any cation: Leu-MCA substrate, 15 min pre-incubation.
Sequence of fuLAP1 (Q5VJG6 16-388): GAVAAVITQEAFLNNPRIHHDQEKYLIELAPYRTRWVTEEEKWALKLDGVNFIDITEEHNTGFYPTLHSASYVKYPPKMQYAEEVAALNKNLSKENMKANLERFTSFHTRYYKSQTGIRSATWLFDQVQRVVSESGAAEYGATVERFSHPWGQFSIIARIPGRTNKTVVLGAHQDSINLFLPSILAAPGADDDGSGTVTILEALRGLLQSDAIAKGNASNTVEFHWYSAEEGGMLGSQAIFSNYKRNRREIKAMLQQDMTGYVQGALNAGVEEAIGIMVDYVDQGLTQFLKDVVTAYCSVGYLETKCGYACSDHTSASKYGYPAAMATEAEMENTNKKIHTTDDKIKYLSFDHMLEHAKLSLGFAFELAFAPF

Assay [1] addresses T1, pkLAP (microsomal LAP from porcine kidney) (Sus scrofa, UniProt P15145).
T1 construct: purchased Sigma; host or cells: porcine kidney
T1 sequence (P15145 1-963): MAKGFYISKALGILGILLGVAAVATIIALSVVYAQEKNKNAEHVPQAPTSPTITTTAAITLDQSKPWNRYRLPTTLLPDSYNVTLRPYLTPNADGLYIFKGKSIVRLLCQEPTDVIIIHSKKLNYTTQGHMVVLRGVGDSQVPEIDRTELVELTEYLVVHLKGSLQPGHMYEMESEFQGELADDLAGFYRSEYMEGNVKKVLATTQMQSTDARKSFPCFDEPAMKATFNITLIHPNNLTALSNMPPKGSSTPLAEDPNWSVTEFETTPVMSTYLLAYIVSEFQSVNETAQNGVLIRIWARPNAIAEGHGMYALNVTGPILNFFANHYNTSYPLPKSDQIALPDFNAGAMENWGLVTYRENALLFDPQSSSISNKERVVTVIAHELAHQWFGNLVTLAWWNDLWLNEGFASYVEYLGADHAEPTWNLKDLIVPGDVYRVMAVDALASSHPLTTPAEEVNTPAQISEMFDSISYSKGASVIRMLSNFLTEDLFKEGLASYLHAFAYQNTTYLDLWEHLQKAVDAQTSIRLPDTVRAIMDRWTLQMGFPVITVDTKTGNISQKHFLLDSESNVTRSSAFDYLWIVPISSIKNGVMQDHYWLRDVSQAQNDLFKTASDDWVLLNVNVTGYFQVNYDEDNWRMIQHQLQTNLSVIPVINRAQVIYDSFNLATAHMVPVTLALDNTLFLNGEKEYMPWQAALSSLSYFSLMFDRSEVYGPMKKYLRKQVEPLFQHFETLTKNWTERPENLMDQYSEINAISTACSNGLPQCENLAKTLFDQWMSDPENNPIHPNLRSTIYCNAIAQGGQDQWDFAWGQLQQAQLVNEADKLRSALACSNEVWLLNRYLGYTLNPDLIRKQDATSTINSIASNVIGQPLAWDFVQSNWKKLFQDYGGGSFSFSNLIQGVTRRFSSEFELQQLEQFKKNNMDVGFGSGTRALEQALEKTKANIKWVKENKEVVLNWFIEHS
The assay can be described thus: Effect of inhibitors and metallic cations on LAP activity (Leu-AMC). The assay is classed as biochemical. Particulars: for remaining activity at 500 µM: read-out: pkLAP activity as percentage of control reaction without inhibitor.

[2] abbreviates: Leu-AMC, cations 0.5 mM and 1 mM.

Five compounds from US7354734B2, “Fungal proteins and nucleic acids encoding same” (priority 2003, dated 2008) can be followed below.

Molecules are shown by their SMILES. Values joined by “and” are separate entries in the source; they are usually repeats but may differ in a detail not shown here. Identical values can stand only once. Like-named read-outs stand apart in the source and are kept apart here.

Sequence of ruLAP2 (Q5QHG6 20-495): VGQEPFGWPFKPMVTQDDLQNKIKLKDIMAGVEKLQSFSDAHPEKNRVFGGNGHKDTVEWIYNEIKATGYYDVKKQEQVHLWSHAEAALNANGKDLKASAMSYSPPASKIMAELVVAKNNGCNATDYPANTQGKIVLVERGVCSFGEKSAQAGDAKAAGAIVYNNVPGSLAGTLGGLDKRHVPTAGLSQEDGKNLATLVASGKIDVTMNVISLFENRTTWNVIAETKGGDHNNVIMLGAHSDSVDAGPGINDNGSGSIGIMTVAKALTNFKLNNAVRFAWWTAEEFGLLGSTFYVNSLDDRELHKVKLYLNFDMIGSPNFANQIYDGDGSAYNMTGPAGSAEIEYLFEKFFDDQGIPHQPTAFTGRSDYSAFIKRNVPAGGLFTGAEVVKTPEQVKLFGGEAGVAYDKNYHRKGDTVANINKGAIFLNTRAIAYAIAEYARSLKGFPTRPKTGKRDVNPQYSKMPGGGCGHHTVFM

For the compound `CC(C)C[C@@H](N)[C@H](O)C(=O)N[C@H](C(=O)N[C@H](C(=O)N[C@@H](CC(=O)O)C(=O)O)C(C)C)C(C)C` [amastatin], the “effect of inhibitor on ruLAP2 activity” value at ruLAP2 was “strongly or totally inhibited”. Further, the “effect of inhibitor on ruLAP1 activity” value on ruLAP1 is “strongly or totally inhibited”. In addition, the “effect of inhibitor on fuLAP2 activity” value with fuLAP2 was “strongly or totally inhibited”. In addition, in the assay with fuLAP2 (inhibitor 500 μM), the “fuLAP2 activity as percentage of control reaction without inhibitor” value was 0%. Moreover, at fuLAP1, the “effect of inhibitor on fuLAP1 activity” value is recorded as “strongly or totally inhibited” and the remaining activity at 500 µM is 17%. In assay [1], the “effect of inhibitor on pkLAP activity” value is “strongly or totally inhibited” and the remaining activity at 500 µM came out at 0%.
Regarding `c1cnc2c(c1)ccc1cccnc12` [orthophenanthroline], the “ruLAP2 activity as percentage of control reaction without inhibitor” value on ruLAP2 (inhibitor 1 mM) and on ruLAP2 (inhibitor 5 mM) was 0% in each case. The “ruLAP1 activity as percentage of control reaction without inhibitor” value at ruLAP1 (inhibitor 1 mM) and on ruLAP1 (inhibitor 5 mM) was 0% in each case. For the same compound, the “fuLAP2 activity as percentage of control reaction without inhibitor” value in the assay on fuLAP2 (inhibitor 1 mM) and in the assay with fuLAP2 (inhibitor 5 mM) was 0% throughout. In addition, the “fuLAP1 activity as percentage of control reaction without inhibitor” value on fuLAP1 (inhibitor 1 mM) and on fuLAP1 (inhibitor 5 mM) was 0% each time. Further, the “pkLAP activity as percentage of control reaction without inhibitor” value in assay [1] (inhibitor 1 mM, Leu-MCA substrate, 15 min pre-incubation) is 0%; in assay [1] (inhibitor 5 mM, Leu-MCA substrate, 15 min pre-incubation), 0%.
For the compound `Cc1ccc(S(=O)(=O)N[C@@H](Cc2ccccc2)C(=O)CCl)cc1` [TPCK], the “effect of inhibitor on ruLAP2 activity” value at ruLAP2 is on record as “no clear inhibitory effects”. On ruLAP2 (inhibitor 20 μM), the “ruLAP2 activity as percentage of control reaction without inhibitor” value is 79%. Further, the “effect of inhibitor on ruLAP1 activity” value on ruLAP1 is “no clear inhibitory effects”. In addition, the “ruLAP1 activity as percentage of control reaction without inhibitor” value on ruLAP1 (inhibitor 20 μM) was found to be 68%. The “effect of inhibitor on fuLAP2 activity” value with fuLAP2 is recorded as “no clear inhibitory effects”. Further, the “fuLAP2 activity as percentage of control reaction without inhibitor” value in the assay on fuLAP2 (inhibitor 20 μM) is reported as 87%. In addition, the “effect of inhibitor on fuLAP1 activity” value at fuLAP1 is recorded as “no clear inhibitory effects”. In addition, the “fuLAP1 activity as percentage of control reaction without inhibitor” value on fuLAP1 (inhibitor 20 μM) came to 95%. Moreover, the “effect of inhibitor on pkLAP activity” value in assay [1] (Leu-AMC 5 mM) was “no clear inhibitory effects”. Further, in assay [1] (inhibitor 20 μM, Leu-MCA substrate, 15 min pre-incubation), the “pkLAP activity as percentage of control reaction without inhibitor” value came to 108%.
`CC(C)C[C@H](NC(=O)[C@@H](O)[C@H](N)Cc1ccccc1)C(=O)O` [bestatin]: the “effect of inhibitor on ruLAP2 activity” value on ruLAP2 was “partial inhibitory effect”. Besides, on ruLAP1, the “effect of inhibitor on ruLAP1 activity” value was “inhibited”. The “effect of inhibitor on fuLAP2 activity” value in the assay on fuLAP2 is “partial inhibitory effect”. The “fuLAP2 activity as percentage of control reaction without inhibitor” value in the assay on fuLAP2 (inhibitor 500 μM) came to 88%. Besides, on fuLAP1, the “effect of inhibitor on fuLAP1 activity” value is listed as “inhibited” and the remaining activity at 500 µM turned out to be 11%. Besides, the “effect of inhibitor on pkLAP activity” value in assay [1] (Leu-AMC 5 mM) is “inhibited”. For the same compound, the remaining activity at 500 µM in assay [1] (inhibitor 500 μM, Leu-MCA substrate, 15 min pre-incubation) was determined as 24%.
`[Cl-].[Cl-].[Co+2]` [Co^++, CoCl2]: the “effect of divalent cation on ruLAP2 activity” value on ruLAP2 (setting [2]) is “highly activated”. For the same compound, the “ruLAP2 activity as percentage of control reaction without any cation” value at ruLAP2 (cation salt 0.5 mM) was 591.2%; on ruLAP2 (cation salt 1 mM) it was 789.7%. For the same compound, on ruLAP1, the “ruLAP1 activity as percentage of control reaction without any cation” value was 210.2% and 202.1%. The “effect of divalent cation on fuLAP2 activity” value in the assay on fuLAP2 (setting [2]) is reported as “highly activated”. Besides, the “fuLAP2 activity as percentage of control reaction without any cation” value is 378.0% in the assay with fuLAP2 (cation salt 0.5 mM) and 662.7% with fuLAP2 (cation salt 1 mM). The “fuLAP1 activity as percentage of control reaction without any cation” value at fuLAP1 (cation salt 0.5 mM) is on record as 104.3%; at fuLAP1 (cation salt 1 mM), 96.5%. Also, the “pkLAP activity as percentage of control reaction without any cation” value was 876.1% in assay [1] (cation salt 0.5 mM, Leu-MCA substrate, 15 min pre-incubation) and 899.8% in assay [1] (cation salt 1 mM, Leu-MCA substrate, 15 min pre-incubation).
